Data on 30 compounds can be found in US7704995B2 (Exelixis, Inc., priority 2003, dated 2010).

Where only a bound is given, the exact number is not on record here.

The target in the first experiment is T1, Chk1 (Homo sapiens, UniProt O14757).
T1 construct: purchased Upstate Biotechnology
T1 sequence (O14757 1-476): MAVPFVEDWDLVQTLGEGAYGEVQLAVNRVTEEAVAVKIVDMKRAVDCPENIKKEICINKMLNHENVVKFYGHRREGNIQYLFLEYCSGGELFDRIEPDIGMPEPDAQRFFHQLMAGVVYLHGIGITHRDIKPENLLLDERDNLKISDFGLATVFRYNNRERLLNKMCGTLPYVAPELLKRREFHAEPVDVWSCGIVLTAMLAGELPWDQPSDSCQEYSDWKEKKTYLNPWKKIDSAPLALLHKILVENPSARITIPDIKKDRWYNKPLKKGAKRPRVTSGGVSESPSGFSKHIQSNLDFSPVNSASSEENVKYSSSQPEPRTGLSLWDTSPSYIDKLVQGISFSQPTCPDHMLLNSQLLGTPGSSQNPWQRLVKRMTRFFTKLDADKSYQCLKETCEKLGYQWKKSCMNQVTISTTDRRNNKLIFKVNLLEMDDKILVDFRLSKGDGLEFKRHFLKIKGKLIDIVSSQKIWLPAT
Nature of the experiment: Chk1 kinase assay: incorporation of γ-33P ATP into immobilized myelin basic protein. It counts as biochemical. As to conditions: Table 11, Chk1 only; class symbols A-D; read-out: Chk1 IC50. In outline: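 Enzyme activity is measured as γ-33P transfer from ATP onto immobilized MBP over 1 h at room temperature, with Chk1 at 10 nM/10 μM unlabeled ATP and Chk2 at 20 nM/30 μM unlabeled ATP. Compounds are tested in 1% DMSO.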
As for `Nc1ncc(-c2cccc(CNC(=O)COc3ccc(OC(F)(F)F)cc3)c2)nc1C(=O)N[C@H]1CCCNC1` [Example 988, 3-amino-N-[(3S)-piperidin-3-yl]-6-[3-({[({4-[(trifluoromethyl)oxy]phenyl}oxy)acetyl]amino}methyl)phenyl]pyrazine-2-carboxamide], the IC50 (usually the concentration that inhibits the measured activity by half) is less than 50 nM.

Take `Nc1ncc(-c2cccc(C(=O)N[C@H]3CCc4ccccc43)c2)nc1-c1ncn(-c2ccncc2)n1` [Example 813, 3-[5-amino-6-(1-pyridin-4-yl-1H-1,2,4-triazol-3-yl)pyrazin-2-yl]-N-[(1S)-2,3-dihydro-1H-inden-1-yl]benzamide]: the IC50 lay in the range of 1000 to 10000 nM.

Turning to `Nc1ncc(-c2cccc(C(=O)NCc3cc(Cl)cc(Cl)c3)c2)nc1C(=O)N[C@H]1CCCNC1` [Example 952, 3-amino-6-[3-({[(3,5-dichlorophenyl)methyl]amino}carbonyl)phenyl]-N-[(3S)-piperidin-3-yl]pyrazine-2-carboxamide], the IC50 was less than 50 nM.

On to `Cc1cccc(-c2cnc(N)c(C(=O)N[C@H]3CCCCNC3)n2)c1` [Example 974, 3-amino-N-[(3S)-azepan-3-yl]-6-(3-methylphenyl)pyrazine-2-carboxamide], for which the IC50 was less than 50 nM.

The same experiment, now with this note: Table 11; Chk1 only; read-out: Chk1 IC50.
As to `Nc1ncc(-c2cccc(C(=O)N[C@@H]3c4ccccc4C[C@@H]3O)c2)nc1C(=O)NC1CCCNC1` (stereo partly drawn) [Example 766, 3-amino-6-[3-({[(1R,2S)-2-hydroxy-2,3-dihydro-1H-inden-1-yl]amino}carbonyl)phenyl]-N-piperidin-3-ylpyrazine-2-carboxamide], the IC50 is less than 50 nM.

For the compound `Nc1ncc(-c2cccc(C(=O)N[C@@H]3c4ccccc4C[C@@H]3O)c2)nc1C(=O)NC1CCCNCC1` (stereo partly drawn) [Example 782, 3-amino-N-azepan-4-yl-6-[3-({[(1R,2S)-2-hydroxy-2,3-dihydro-1H-inden-1-yl]amino}carbonyl)phenyl]pyrazine-2-carboxamide], the IC50 is less than 50 nM.

For the compound `CN(C)c1ccc(NC(=O)NCCNC(=O)c2nc(-c3cccc(C(=O)NCc4ccccc4)c3)cnc2N)cc1` [Example 691, 3-amino-N-{2-[({[4-(dimethylamino)phenyl]amino}carbonyl)amino]ethyl}-6-(3-{[(phenylmethyl)amino]carbonyl}phenyl)pyrazine-2-carboxamide], the IC50 was not below 10000 nM.

On to `Nc1ncc(-c2cccc(CN[C@H]3CCc4ccccc43)c2)nc1C(=O)NCCCCCO` [Example 538, 3-amino-6-(3-{[(1S)-2,3-dihydro-1H-inden-1-ylamino]methyl}phenyl)-N-(5-hydroxypentyl)pyrazine-2-carboxamide], for which the half-inhibitory concentration (IC50) lay within 1000 to 10000 nM.

Turning to `CC(C)(C)OC(=O)N1CC[C@@H](CNC(=O)c2nc(-c3cccc(C(=O)N[C@@H]4c5ccccc5C[C@@H]4O)c3)cnc2N)C1` [Example 769, 1,1-dimethylethyl (3S)-3-{[({3-amino-6-[3-({[(1R,2S)-2-hydroxy-2,3-dihydro-1H-inden-1-yl]amino}carbonyl)phenyl]pyrazin-2-yl}carbonyl)amino]methyl}pyrrolidine-1-carboxylate], the IC50 is not below 10000 nM.

Turning to `CNC(=O)c1nc(-c2cccc(CNC3CCc4cc(-c5ccoc5)ccc43)c2)cnc1N` (stereo not drawn) [Example 480, 3-amino-6-(3-{[(5-furan-3-yl-2,3-dihydro-1H-inden-1-yl)amino]methyl}phenyl)-N-methylpyrazine-2-carboxamide], the IC50 is less than 50 nM.

Regarding `Nc1ncc(-c2cccc(C(=O)N[C@@H]3c4ccccc4C[C@@H]3O)c2)nc1-c1nnc([C@H]2CCCNC2)[nH]1` [Example 775, 3-(5-amino-6-{5-[(3S)-piperidin-3-yl]-4H-1,2,4-triazol-3-yl}pyrazin-2-yl)-N-[(1R,2S)-2-hydroxy-2,3-dihydro-1H-inden-1-yl]benzamide], the IC50 is less than 50 nM.

Regarding `N=C(NNc1ccccc1)c1nc(-c2cccc(C(=O)NCc3ccccc3)c2)cnc1N` [Example 619, 3-{5-amino-6-[imino(2-phenylhydrazino)methyl]pyrazin-2-yl}-N-(phenylmethyl)benzamide], the IC50 lay in the range of 1000 to 10000 nM.

On to `CN/N=C(\C)c1nc(-c2cccc(C(=O)NCc3ccccc3)c2)cnc1N` [Example 638, 3-{5-amino-6-[(1E)-N-methylethanehydrazonoyl]pyrazin-2-yl}-N-(phenylmethyl)benzamide], for which the IC50 was not below 10000 nM.

Regarding `CNNC(=N)c1nc(-c2cccc(C(=O)N[C@H]3CCc4ccccc43)c2)cnc1N` [Example 719, 3-{5-amino-6-[imino(2-methylhydrazino)methyl]pyrazin-2-yl}-N-[(1S)-2,3-dihydro-1H-inden-1-yl)benzamide], the IC50 lay within 1000 to 10000 nM.

For the compound `Nc1ncc(-c2cccc(C(=O)N[C@H]3CCc4ccccc43)c2)nc1-c1nc(C2CCCNC2)n(-c2ccccc2)n1` (stereo partly drawn) [Example 773, 3-[5-amino-6-(1-phenyl-5-piperidin-3-yl-1H-1,2,4-triazol-3-yl)pyrazin-2-yl]-N-[(1S)-2,3-dihydro-1H-inden-1-yl]benzamide], the IC50 fell in the range of 50 to 1000 nM.

Take `COC(=O)CNC(=O)c1nc(-c2cccc(C(=O)NCc3ccccc3)c2)cnc1N` [Example 576, methyl N-{[3-amino-6-(3-{[(phenylmethyl)amino]carbonyl}phenyl)pyrazin-2-yl]carbonyl}glycinate]: the IC50 lay within 1000 to 10000 nM.

Regarding `CCN1CCCC(NC(=O)c2nc(-c3cccc(C(=O)N[C@H]4CCc5ccccc54)c3)cnc2N)C1` (stereo partly drawn) [Example 730, 3-amino-6-(3-{[(1S)-2,3-dihydro-1H-inden-1-ylamino]carbonyl}phenyl)-N-(1-ethylpiperidin-3-yl)pyrazine-2-carboxamide], the IC50 was in the range of 50 to 1000 nM.

Take `CCn1nc(-c2nc(-c3cccc(C(=O)N[C@H]4CCc5ccccc54)c3)cnc2N)nc1C1CCCN(C(=O)OCc2ccccc2)C1` (stereo partly drawn) [Example 722, phenylmethyl 3-{3-[3-amino-6-(3-{[(1S)-2,3-dihydro-1H-inden-1-ylamino]carbonyl}phenyl)pyrazin-2-yl]-1-ethyl-1H-1,2,4-triazol-5-yl}piperidine-1-carboxylate]: the IC50 is not below 10000 nM.

Turning to `CCNc1ncc(-c2cccc(C(=O)N[C@H]3CCc4ccccc43)c2)nc1C(=O)N[C@H]1CCN(CC)C1` [Example 707, 6-(3-{[(1S)-2,3-dihydro-1H-inden-1-ylamino]carbonyl}phenyl)-3-(ethylamino)-N-[(3S)-1-ethylpyrrolidin-3-yl]pyrazine-2-carboxamide], the IC50 was not below 10000 nM.

Staying with this experiment, now noted: read-out: Chk1 IC50.
In the case of `CNC(=O)c1nc(-c2cccc(NC(=O)Cc3ccc(Cl)cc3Cl)c2)cnc1N` [Example 209, 3-amino-6-(3-{[(2,4-dichlorophenyl)acetyl]amino}phenyl)-N-methylpyrazine-2-carboxamide], the IC50 was less than 50 nM.

As for `CNC(=O)c1nc(-c2cccc(C(=O)NCc3ccccc3Br)c2)cnc1N` [Example 305, 3-amino-6-[3-({[(2-bromophenyl)methyl]amino}carbonyl)phenyl]-N-methylpyrazine-2-carboxamide], the IC50 was 50 to 1000 nM.

For the compound `CNC(=O)c1nc(-c2cccc(C(=O)NCc3c(F)ccc(C)c3Cl)c2)cnc1N` [Example 296, 3-amino-6-[3-({[(2-chloro-6-fluoro-3-methylphenyl)methyl]amino}carbonyl)phenyl]-N-methylpyrazine-2-carboxamide], the IC50 fell in the range of 50 to 1000 nM.

Regarding `CNC(=O)c1nc(-c2cccs2)cnc1N` [Example 268, 3-amino-N-methyl-6-(2-thienyl)pyrazine-2-carboxamide], the IC50 lay in the range of 50 to 1000 nM.

As to `CNC(=O)c1nc(-c2cccc(C(=O)NC3CCCC3)c2)cnc1N` [Example 220, 3-amino-6-{3-[(cyclopentylamino)carbonyl]phenyl}-N-methylpyrazine-2-carboxamide], the IC50 fell in the range of 1000 to 10000 nM.

Take `CNC(=O)c1nc(-c2cccc(NC(=O)c3ccc(Cl)cc3)c2)cnc1N` [Example 111, 3-amino-6-(3-{[(4-chlorophenyl)carbonyl]amino}phenyl)-N-methylpyrazine-2-carboxamide]: the IC50 lay within 50 to 1000 nM.

Regarding `CNC(=O)c1nc(-c2cccc(C(=O)NCC(C)c3ccccc3)c2)cnc1N` (stereo not drawn) [Example 127, 3-amino-N-methyl-6-(3-{[(2-phenylpropyl)amino]carbonyl}phenyl)pyrazine-2-carboxamide], the IC50 fell in the range of 50 to 1000 nM.

For `CNC(=O)c1nc(-c2cncc(C(=O)NCc3ccccc3)c2)cnc1N` [Example 349, 3-amino-N-methyl-6-(5-{[(phenylmethyl)amino]carbonyl}pyridin-3-yl)pyrazine-2-carboxamide], the IC50 was in the range of 50 to 1000 nM.

For `CNC(=O)c1nc(-c2cccc(C(=O)N[C@@H]3CCN(Cc4ccccc4)C3)c2)cnc1N` [Example 197, 3-amino-N-methyl-6-[3-({[(3R)-1-(phenylmethyl)pyrrolidin-3-yl]amino}carbonyl)phenyl]pyrazine-2-carboxamide], the IC50 was in the range of 50 to 1000 nM.

As for `CNC(=O)c1nc(-c2cccc(C(=O)NCc3ccc(Cl)cc3)c2)cnc1N` [Example 98, 3-amino-6-[3-({[(4-chlorophenyl)methyl]amino}carbonyl)phenyl]-N-methylpyrazine-2-carboxamide], the IC50 lay within 50 to 1000 nM.

For `CNC(=O)c1nc(-c2cccc(CNCc3ccc4c(c3)OCCO4)c2)cnc1N` [Example 403, 3-amino-6-(3-{[(2,3-dihydro-1,4-benzodioxin-6-ylmethyl)amino]methyl}phenyl)-N-methylpyrazine-2-carboxamide], the IC50 fell in the range of 50 to 1000 nM.
